# Results reported in ChEMBL document CHEMBL2406911, “Structure guided design of a series of sphingosine kinase (SphK) inhibitors” (Bioorg Med Chem Lett, 2013).
# Tests used:
# Sphingosine kinase 2 [1] = molecular target: T1, Sphingosine kinase 2 (Homo sapiens, UniProt Q9NRA0)
# T1 sequence (Q9NRA0 whole entry): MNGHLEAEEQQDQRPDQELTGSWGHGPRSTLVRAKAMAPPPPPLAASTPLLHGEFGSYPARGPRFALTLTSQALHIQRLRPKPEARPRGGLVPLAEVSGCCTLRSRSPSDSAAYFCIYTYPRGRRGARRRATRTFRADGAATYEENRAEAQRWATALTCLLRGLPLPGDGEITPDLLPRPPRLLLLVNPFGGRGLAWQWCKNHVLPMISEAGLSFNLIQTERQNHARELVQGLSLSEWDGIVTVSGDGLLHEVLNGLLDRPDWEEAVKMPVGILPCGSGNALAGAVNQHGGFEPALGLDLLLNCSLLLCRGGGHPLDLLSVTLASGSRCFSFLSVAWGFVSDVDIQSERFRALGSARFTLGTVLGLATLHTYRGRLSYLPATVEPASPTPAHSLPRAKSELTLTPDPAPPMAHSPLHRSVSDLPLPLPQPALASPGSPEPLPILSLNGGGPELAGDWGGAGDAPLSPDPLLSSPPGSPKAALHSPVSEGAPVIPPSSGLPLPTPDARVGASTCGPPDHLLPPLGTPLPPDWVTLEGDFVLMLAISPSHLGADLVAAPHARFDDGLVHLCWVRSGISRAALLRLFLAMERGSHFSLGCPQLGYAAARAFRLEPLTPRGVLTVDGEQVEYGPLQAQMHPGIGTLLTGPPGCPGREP
# Description: Inhibition of purified human SphK2 assessed as inhibition of formation of [33P]-S1P after 50 mins by scintillation counting
# Sphingosine kinase 1 [2] = molecular target: T2, Sphingosine kinase 1 (Homo sapiens, UniProt Q9NYA1)
# T2 sequence (Q9NYA1 whole entry): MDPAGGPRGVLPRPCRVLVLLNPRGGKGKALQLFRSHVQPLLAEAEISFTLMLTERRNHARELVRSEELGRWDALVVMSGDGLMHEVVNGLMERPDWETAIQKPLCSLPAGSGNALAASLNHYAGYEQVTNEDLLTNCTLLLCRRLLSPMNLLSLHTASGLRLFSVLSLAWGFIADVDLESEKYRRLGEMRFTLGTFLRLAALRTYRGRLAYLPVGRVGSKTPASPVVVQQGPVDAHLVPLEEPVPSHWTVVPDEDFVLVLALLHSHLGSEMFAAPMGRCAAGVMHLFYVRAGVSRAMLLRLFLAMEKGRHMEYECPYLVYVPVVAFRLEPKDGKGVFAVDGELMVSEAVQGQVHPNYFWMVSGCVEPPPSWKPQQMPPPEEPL
# Description: Inhibition of purified human SphK1 assessed as inhibition of formation of [33P]-S1P after 50 mins by scintillation counting
# Sphingosine kinase 1 [3] = molecular target: T2, Sphingosine kinase 1; remark: listed apart in the source
# Description: Inhibition of SphK1 in human WM266-4 cells assessed as inhibition of formation of [17C]-S1P formation after 20 mins by LC-MS analysis
# [4] = Volume of distribution at steady state in rat at 0.5 mg/kg, iv; format: ADME, organism-based; parameters: dose 0.5 mg/kg, route intravenous; details: in vivo, read-out: Vdss
# [5] = Fraction unbound in human plasma by ultra-centrifugation method; format: ADME, cell-free
# [6] = Clearance in rat at 0.5 mg/kg, iv; format: ADME, organism-based; parameters: dose 0.5 mg/kg, route intravenous; details: in vivo
# Sphingosine kinase 2 [7] = molecular target: T3, Sphingosine kinase 2 (Mus musculus, UniProt Q9JIA7); experiment: Inhibition of mouse SphK2
# T3 sequence (Q9JIA7 whole entry): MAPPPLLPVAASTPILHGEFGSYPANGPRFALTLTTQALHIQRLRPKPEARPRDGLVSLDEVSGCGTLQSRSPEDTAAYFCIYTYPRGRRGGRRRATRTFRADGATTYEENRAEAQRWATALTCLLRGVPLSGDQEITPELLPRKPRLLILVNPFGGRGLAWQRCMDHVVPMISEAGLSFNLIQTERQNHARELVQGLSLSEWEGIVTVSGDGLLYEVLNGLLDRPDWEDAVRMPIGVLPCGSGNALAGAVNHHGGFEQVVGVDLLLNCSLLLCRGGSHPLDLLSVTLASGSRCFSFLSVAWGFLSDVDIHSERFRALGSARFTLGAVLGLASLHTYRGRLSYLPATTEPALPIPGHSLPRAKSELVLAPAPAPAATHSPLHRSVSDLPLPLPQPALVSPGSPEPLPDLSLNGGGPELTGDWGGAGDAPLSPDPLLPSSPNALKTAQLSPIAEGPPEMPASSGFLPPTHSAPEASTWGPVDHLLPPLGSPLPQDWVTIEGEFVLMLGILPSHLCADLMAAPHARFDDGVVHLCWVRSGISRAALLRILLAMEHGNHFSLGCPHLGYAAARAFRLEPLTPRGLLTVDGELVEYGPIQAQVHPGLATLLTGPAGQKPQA
# Sphingosine kinase 1 [8] = molecular target: Sphingosine kinase 1 (Mus musculus, UniProt Q8CI15); experiment: Inhibition of mouse SphK1
# Chain of Sphingosine kinase 1 (Mus musculus, UniProt Q8CI15) (Q8CI15 whole entry): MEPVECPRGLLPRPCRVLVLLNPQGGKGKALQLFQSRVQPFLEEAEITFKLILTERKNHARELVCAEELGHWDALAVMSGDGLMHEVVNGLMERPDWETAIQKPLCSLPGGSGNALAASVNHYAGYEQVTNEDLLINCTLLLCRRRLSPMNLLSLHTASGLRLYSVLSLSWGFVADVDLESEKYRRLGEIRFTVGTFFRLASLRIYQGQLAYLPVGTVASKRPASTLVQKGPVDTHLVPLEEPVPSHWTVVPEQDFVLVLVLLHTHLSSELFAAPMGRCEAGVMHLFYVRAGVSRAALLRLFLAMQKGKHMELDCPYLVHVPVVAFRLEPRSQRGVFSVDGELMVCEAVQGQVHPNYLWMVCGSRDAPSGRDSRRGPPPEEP
# [9] = Fraction unbound in rat plasma by ultra-centrifugation method; format: ADME, cell-free
# [10] = Mean residence time in rat at 0.5 mg/kg, iv; format: ADME, organism-based; parameters: dose 0.5 mg/kg, route intravenous; details: in vivo
# [11] = Clearance in mouse at 5 mg/kg, po; format: ADME, organism-based; parameters: dose 5 mg/kg, route oral; details: in vivo
# [12] = Oral bioavailability in mouse at 5 mg/kg; format: ADME, organism-based; details: in vivo
# [13] = Mean residence time in mouse at 5 mg/kg, po; format: ADME, organism-based; parameters: dose 5 mg/kg, route oral; details: in vivo
SMILES,IC50 (Sphingosine kinase 2 [1]) [nM],IC50 (Sphingosine kinase 1 [2]) [nM],further results
CCCCCCCCCCCCc1ccc(C(=O)NC2(C(=N)N)CC2)cc1,,,Ki (Sphingosine kinase 2 [1]): 500 nM; Ki (Sphingosine kinase 1 [2]): 200 nM
N=C(N)[C@@H]1CCCN1C(=O)c1ccc(-c2nc(-c3cccc(CCC4CCCCC4)c3)co2)cc1,,,Ki (Sphingosine kinase 2 [1]): 4200 nM; Ki (Sphingosine kinase 1 [2]): 50 nM
CCCCc1ccc(/C=C/[C@H](O)[C@@H](CO)NC)cc1,,,Ki (Sphingosine kinase 2 [1]): > 100000 nM; Ki (Sphingosine kinase 1 [2]): 10000 nM
OC[C@H]1C[C@@H](O)CCN1CCc1ccc(Nc2nc(C3CCCC3)cs2)cc1,> 5000,130,EC50 (Sphingosine kinase 1 [3]): 850 nM
OC[C@H]1C[C@@H](O)CCN1CCc1ccc(Nc2nc(-c3ccc(Cl)cc3Cl)cs2)cc1,,,Vd [4]: 18 L/kg; fraction unbound [5]: 0.02; clearance [6]: 21.7 mL/min/kg; IC50 (Sphingosine kinase 2 [7]): > 10000 nM; IC50 (Sphingosine kinase 1 [8]): 20 nM; fraction unbound [9]: 0.01; MRT [10]: 14 h
OC[C@H]1C[C@@H](O)CCN1CCc1ccc(Nc2nc(-c3cccc(C(F)(F)F)c3F)cs2)cc1,,5,EC50 (Sphingosine kinase 1 [3]): 250 nM
O=S1(=O)CCN(CCc2ccc(Nc3nc(-c4ccc(Cl)c(Cl)c4)cs3)cc2)C(CO)C1 (configuration not stated),3000,,
OC[C@H]1C[C@@H](O)CCN1CCCc1ccc(Nc2nc(-c3ccc(Cl)c(Cl)c3)cs2)cc1,> 10000,2500,
OC[C@H]1C[C@@H](O)CN1CCc1ccc(Nc2nc(-c3ccc(Cl)c(Cl)c3)cs2)cc1,90,,Vd [4]: > 100 L/kg; clearance [6]: > 233 mL/min/kg
OC[C@H]1C[C@@H](O)CN1CCCc1ccc(Nc2nc(-c3ccc(Cl)c(Cl)c3)cs2)cc1,270,30,Vd [4]: > 100 L/kg; clearance [6]: > 233 mL/min/kg
OC[C@H]1C[C@H](O)CN1CCc1ccc(Nc2nc(-c3ccc(Cl)c(Cl)c3)cs2)cc1,250,,Vd [4]: > 100 L/kg; clearance [6]: > 233 mL/min/kg
OC[C@H]1C[C@H](O)CN1CCCc1ccc(Nc2nc(-c3ccc(Cl)c(Cl)c3)cs2)cc1,90,30,Vd [4]: > 100 L/kg; clearance [6]: > 233 mL/min/kg
OC[C@H]1CCCCN1CCc1ccc(Nc2nc(-c3cccc(Cl)c3)cs2)cc1,,270,
N#Cc1ccc(-c2csc(Nc3ccc(CCN4CCCC[C@@H]4CO)cc3)n2)cc1,,> 10000,
OC[C@H]1C[C@@H](O)CCN1CCc1ccc(Nc2nc(-c3cccc(F)c3)cs2)cc1,> 5000,,
OC[C@H]1C[C@@H](O)CCN1CCc1ccc(Nc2nc(-c3ccc(Cl)cc3)cs2)cc1,,8,EC50 (Sphingosine kinase 1 [3]): 130 nM
OC[C@H]1C[C@@H](O)CCN1CCc1ccc(Nc2nc(-c3ccc(C(F)(F)F)cc3)cs2)cc1,,,Vd [4]: 17 L/kg; CL/F [11]: 11.7 mL/min/kg; bioavailability [12]: 32%; fraction unbound [5]: 0.04; clearance [6]: 23.3 mL/min/kg; MRT [13]: 13 h; IC50 (Sphingosine kinase 1 [8]): 70 nM; fraction unbound [9]: 0.03; MRT [10]: 12 h
CCCCc1csc(Nc2ccc(CCN3CC[C@H](O)C[C@@H]3CO)cc2)n1,> 5000,70,EC50 (Sphingosine kinase 1 [3]): 370 nM
CC(C)(C)c1csc(Nc2ccc(CCN3CC[C@H](O)C[C@@H]3CO)cc2)n1,> 10000,> 5000,

# Continued, in another order:
IC50 (Sphingosine kinase 2 [1]) [nM],IC50 (Sphingosine kinase 1 [2]) [nM],SMILES,further results
2500,990,OC[C@@H]1CCCN1CCc1ccc(Nc2nc(-c3ccc4ccccc4c3)cs2)cc1,
2500,,OCC1CCN1CCc1ccc(Nc2nc(-c3ccc4ccccc4c3)cs2)cc1 (configuration not stated),
2700,580,OC[C@H]1CCCN1CCc1ccc(Nc2nc(-c3ccc4ccccc4c3)cs2)cc1,
5700,,COC[C@H]1CCCN1CCc1ccc(Nc2nc(-c3ccc4ccccc4c3)cs2)cc1,
,140,OCC1CCCCN1CCc1ccc(Nc2nc(-c3ccc4ccccc4c3)cs2)cc1 (configuration not stated),
> 10000,,OCC1CCCCCN1CCc1ccc(Nc2nc(-c3ccc4ccccc4c3)cs2)cc1 (configuration not stated),
> 10000,> 10000,OCCC1CCCCN1CCc1ccc(Nc2nc(-c3ccc4ccccc4c3)cs2)cc1 (configuration not stated),
1700,,CN1CCN(CCc2ccc(Nc3nc(-c4ccc5ccccc5c4)cs3)cc2)C(CO)C1 (configuration not stated),
> 10000,,OCC1COCCN1CCc1ccc(Nc2nc(-c3ccc4ccccc4c3)cs2)cc1 (configuration not stated),
,80,OC[C@H]1CCCCN1CCc1ccc(Nc2nc(-c3ccc4ccccc4c3)cs2)cc1,
,1100,OC[C@@H]1CCCCN1CCc1ccc(Nc2nc(-c3ccc4ccccc4c3)cs2)cc1,
,80,OC[C@H]1CCCCN1CCc1ccc(Nc2nc(-c3ccc(Cl)cc3)cs2)cc1,
,70,OC[C@H]1C[C@@H](O)CCN1CCc1ccc(Nc2nc(-c3ccccc3)cs2)cc1,EC50 (Sphingosine kinase 1 [3]): 310 nM
,7,Cc1ccc(-c2csc(Nc3ccc(CCN4CC[C@H](O)C[C@@H]4CO)cc3)n2)cc1,
